Results on four molecules are retold here after patent publication US20220331322A1, “COMPOUND FOR INHIBITING CELL DEATH” (Christian-Albrechts-Universität zu Kiel, priority 2019, published 2022).

The subject of test [1] is L929 cells. As to the kind of experiment: TZ-induced RIPK1-dependent necroptosis, metabolites. The class given is cell-based, murine. Particulars: L929, 10 ng/ml TNF-α + 25 μM zVAD, 24 h; 1 mM PEMA or PB. Here is the method: Murine fibroblasts (L929 cells) were incubated for 24 h at 37° C. in the presence of (a) vehicle, (b) 1 mM PEMA or PB, respectively, (c) a combination of 10 ng/ml TNF-α+25 μM zVAD (TZ), and (d) a combination of TZ+PEMA or TZ+PB, respectively.

Another test has as its system Jurkat cells. As to the kind of experiment: Anti-Fas antibody induced RIPK1-independent apoptosis. The class given is cell-based, human. To be noted: 5 ng/ml anti-Fas antibody, 5 h, zVAD 25 μM, primidone 1 mM. Here is the method:
To this end, human T cells (Jurkat cells) were incubated for 5 h at 37° C. in the presence of (a) vehicle, (b) 5 ng/ml anti-Fas antibody, (c) 5 ng/ml anti-Fas antibody in combination with 25 μM of the pan-caspase inhibitor zVAD, and (d) 5 ng/ml anti-Fas antibody in combination with 1 mM primidone. The addition of the anti-Fas antibody induces apoptosis, a caspase-dependent form of regulated cell death that can be inhibited by the addition of the pan-caspase inhibitor zVAD.

The subject of test [2] is L929 cells. As to the kind of experiment: Stimulation assay: TNF-α + 5Z-7 (± zVAD) induced RIPK1-dependent apoptosis/necroptosis. The class given is cell-based, murine. Particulars: primidone 1 mM, Nec-1s 20 μM; for Block of RIPK1-dependent apoptosis (RDA): L929, 10 ng/ml TNF-α + 1 μM 5Z-7, 24 h, zVAD 25 μM. Here is the method: Murine fibroblasts (L929 cells) were stimulated for 24 h at 37° C. in the presence of (a) vehicle, (b) 10 ng/ml tumor necrosis factor alpha (TNF-α), (c) 1 μM 5Z-7-oxozeaenol (5Z-7), (d) a combination of 10 ng/ml TNF-α and 1 μM 5Z-7, (e) a combination of 10 ng/ml TNF-α, 1 μM 5Z-7, and 20 μM necrostatin-1 (Nec-1s), (f) a combination of 10 ng/ml TNF-α, 1 μM 5Z-7, and 1 mM primidone (primidone is referred to in the Figures as compound A), (g) a combination of 10 ng/ml TNF-α, 1 μM 5Z-7, and 25 μM zVAD, (h) a combination of 10 ng/ml TNF-α, 1 μM 5Z-7, and 20 μM Nec-1s, and (i) a combination of 10 ng/ml TNF-α, 1 μM 5Z-7, 25 μM zVAD, and 1 mM primidone. TNF-α is a pro-inflammatory cytokine which triggers cell survival (canonical pathway) or cell death, depending on the cellular context. 5Z-7-oxozeaenol (5Z-7) is an inhibitor of transforming growth factor activated kinase 1 (TAK1). TAK1 is an intermediate in the signaling pathway of the TNF-receptor type 1 (TNFR1), and it is known that TAK1 is essential for the prevention of TNF-induced cell death. Cells in which TAK1 is disrupted or otherwise blocked are hypersensitive to TNF-α-induced cell death due to diminished prosurvival pathways including NF-κB and reduced antioxidant enzymes which results in activation of caspases. The compound zVAD is a pan-caspase inhibitor.

For a further test, the target named is T1, RIPK1 (Homo sapiens, UniProt Q13546).
T1 sequence (Q13546 1-671): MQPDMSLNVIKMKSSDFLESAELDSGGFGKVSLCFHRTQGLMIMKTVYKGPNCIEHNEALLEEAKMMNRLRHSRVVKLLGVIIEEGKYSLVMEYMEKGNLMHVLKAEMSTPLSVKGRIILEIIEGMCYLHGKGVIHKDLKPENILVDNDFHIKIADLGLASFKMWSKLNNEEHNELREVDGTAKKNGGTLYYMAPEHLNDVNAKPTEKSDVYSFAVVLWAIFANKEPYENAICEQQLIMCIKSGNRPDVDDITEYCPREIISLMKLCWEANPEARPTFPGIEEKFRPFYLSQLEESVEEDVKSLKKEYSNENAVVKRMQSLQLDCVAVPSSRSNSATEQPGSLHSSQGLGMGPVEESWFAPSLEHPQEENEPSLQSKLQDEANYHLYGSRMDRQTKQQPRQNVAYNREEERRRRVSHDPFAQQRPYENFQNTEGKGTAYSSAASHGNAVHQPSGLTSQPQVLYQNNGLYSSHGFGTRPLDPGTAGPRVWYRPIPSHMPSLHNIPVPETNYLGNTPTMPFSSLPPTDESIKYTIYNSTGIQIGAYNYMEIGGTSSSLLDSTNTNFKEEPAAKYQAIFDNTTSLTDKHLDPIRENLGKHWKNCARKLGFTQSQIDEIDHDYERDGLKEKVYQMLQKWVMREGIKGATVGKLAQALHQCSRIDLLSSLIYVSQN
As to the kind of experiment: KINOMEscan profiling kinase assay.

Test [3] concerns L929 cells. As to the kind of experiment: Time profile of blocking TZ-induced necroptosis, FACS (7-AAD/Annexin V). To be noted: L929, 10 ng/ml TNF-α + 25 μM zVAD (TZ), 24 h; primidone 1 mM, Nec-1s 25 μM; one representative experiment of three. It is filed as cell-based, murine. Here is the method:
The time profile of primidone for blocking cell death was compared to the one of Nec-1s. For this purpose, murine L929 cells were stimulated at 37° C. for 24 h with 10 ng/ml TNF-α+25 μM zVAD (TZ) in the presence of 1 mM primidone and 25 μM Nec-1s, respectively, for the indicated durations. Nec-1s and primidone were added 30 min before, 60 min and 180 min after the induction of RIPK1-mediated necroptosis, respectively. Cell death was quantified by FACS analysis using 7-amino-actinomycin D and phosphatidylserine accessibility (Annexin V staining) as markers.

In test [4] the test system is L929 cells. As to the kind of experiment: TLR3-mediated cell death induced by poly (I:C) + zVAD. The class given is cell-based, murine. Particulars: L929, 1 μg/ml poly (I:C) + 25 μM zVAD, 24 h; primidone 1 mM, Nec-1s 20 μM. The source says: Cell death was induced by activation of the Toll-like receptor 3 (TLR3). TLR3 is mainly expressed on immune cells, where it senses pathogen-associated molecular patterns and initiates innate immune response. The TLR3 agonist poly (I:C) was developed to mimic pathogens infection and boost immune system activation. In experimental models, poly (I:C) is known to induce regulated cell death in cells expressing TLR3. To examine whether primidone also blocks TLR3-mediated cell death, murine L929 cells were stimulated for 24 h at 37° C. with vehicle (a), 1 μg/ml of the TLR3 ligand poly (I:C) alone (b) or in combination with 25 μM zVAD (c). In addition, cells were stimulated with 1 μg/ml poly (I:C), 25 μM zVAD and 20 μM Nec-1s (d) and with 1 μg/ml poly (I:C), 25 μM zVAD and 1 mM primidone (e).

Where a SMILES comes first, the peptide text is derived from it. The star is where a group is joined. Cbz = O=C(OCc1ccccc1)*; CH2F = FC*

For the molecule `CCC(C(N)=O)(C(N)=O)c1ccccc1` [PEMA, 2-Ethyl-2-phenylmalonamide], the “Block of TZ-induced RIPK1-dependent cell death (necroptosis)” value in the test with L929 cells [1] was “can be blocked”.
Regarding `CCC1(c2ccccc2)C(=O)NC(=O)NC1=O` [PB, 5-Ethyl-5-phenyl-1,3-diazinane-2,4,6-trione], the “Block of TZ-induced RIPK1-dependent cell death (necroptosis)” value in the test with L929 cells [1] is reported as “can be blocked”.
Consider `CC(NC(=O)C(NC(=O)OCc1ccccc1)C(C)C)C(=O)NC(CC(=O)O)C(=O)CF` (stereo not drawn) [zVAD] (Cbz-Val-Ala-Asp-CH2F; configuration not given here), for which the “Inhibition of anti-Fas antibody induced cell death (caspase-dependent, RIPK1-independent)” value with Jurkat cells is on record as “completely blocked”. For the same molecule, the “Block of RIPK1-dependent apoptosis (RDA)” value with L929 cells [2] is reported as “cell death occurs”.
Regarding `CN1C(=O)NC(Cc2c[nH]c3c(Cl)cccc23)C1=O` (stereo not shown) [Nec-1s], the “Binding to RIPK1 kinase domain (prevention of kinase binding to immobilized ligand)” value at RIPK1 is recorded as “prevents the kinase from binding to an immobilized ligand”. In the test on L929 cells [3], the “Cells still alive, compound added 60 min after induction of cell death” value was determined as 85.0% and the “Cells still alive, compound added 3 hours after induction of cell death” value is reported as 16.3%. Besides, the “Block of RIPK1-dependent necroptosis” value with L929 cells [2] (L929, 10 ng/ml TNF-α + 1 μM 5Z-7 + 25 μM zVAD, 24 h) is given as “prevents RIPK-1 dependent cell death”. Besides, the “Block of RIPK1-dependent apoptosis (RDA)” value with L929 cells [2] is given as “can be blocked”. Further, in the test with L929 cells [4], the “Protection from RIPK1-mediated cell death induced by poly (I:C) and zVAD” value is reported as “effectively protect cells”.
